Data published in patent US20230055713A1, “COMPOSITION FOR STRENGTHENING SKIN BARRIER OR MOISTURIZING SKIN COMPRISING TILIANIN” (COSMAX NBT, INC., priority 2021, published 2023).

What was measured:
Format in all cases: in vivo
hyaluronic acid = assay: Hyaluronic acid concentration in skin homogenate (ELISA) of UVB-irradiated hairless mice; details: UVB+T10 group: 10 mg/kg/week oral, 12 weeks
Procedure: (§1) Five-week-old female hairless mice (SKFI-1) were purchased from Orient Bio (Seongnam, Korea) as experimental animals. Diets of feed and water were freely given, and the animals were bred at the Yonsei Laboratory Animal Research Center (YLARC, Seoul, Korea) under conditions of 25° C. and 50 to 60% humidity for 12 hours. The hairless mice were randomly assigned to the following five groups: (i) a control group, (ii) a UVB-irradiated group (UVB), (iii) a UVB+100 mg/kg/day ARE-administered group (ARE100), (iv) a UVB+250 mg/Kg/day ARE-administered group (ARE250) and (v) UVB+10 mg/kg/week tilianin-administered group (T10). After one week of acclimatization, oral administrations of ARE and tilianin were performed daily for 12 weeks. In this case, the hairless mice belonging to the CON group and the UVB groups were orally administered with saline instead of the samples. […]
Specifically, the skin tissues of the hairless mice of each group in Example 2-1 were homogenized with NP40 lysis buffer (Elpis Biotech, Daejeon, Korea). The concentration of hyaluronic acid in the homogenate was determined using the hyaluronic acid quantikine ELISA Kit (R&D Systems, Minneapolis, Minn., USA) according to the manufacturer's protocol. Absorbance was read at 450 nm using the VERSAMAX™ variable microplate reader (Molecular Devices, Inc., Sunnyvale, Calif., USA).

[1] = tested on: UVB-irradiated hairless mice; assay: Transepidermal water loss (TEWL, Tewameter) on the dorsal skin of UVB-irradiated hairless mice; details: ARE 100/250 mg/kg/day or tilianin 10 mg/kg/week oral, 12 weeks, vs UVB group
Procedure: as §1, with “weeks.” for “weeks. In this case, the hairless mice belonging to the CON group and the UVB groups were orally administered with saline instead of the samples.”
(§2) Before anesthetizing the hairless mice, the moisture content and the degree of transepidermal water loss (TEWL) were measured on the dorsal section of the hairless mice. Moisture content was measured using CORNEOMETER® 825 (CK Electronics GmbH) at a pressure of 1.1 to 1.5 N after contacting a probe to the skin surface. The TEWL which represents the amount of the evaporation of transepidermal water in the process of damage and recovery of a skin barrier was measured under conditions of 20 to 25° C. and 40 to 60% humidity using TEWAMETER® TM300 (CK Electronics GmbH) equipped with MULTI PROBE ADAPTER® MPA5 (CK Electronics GmbH).

HAS1 = HAS1 mRNA expression in skin tissue (RT-PCR) of UVB-irradiated hairless mice; details: oral administration, 12 weeks, compared to the UVB-treated group
Procedure: as §1, with “samples. The hairless mice of the remaining groups except the CON group were irradiated with UVB, and the UVB irradiation was carried out using UV crosslinker CL-1000M (UVP) toward the back 3 times per week.” for “samples.”
(§3) Specifically, mRNA was isolated from the skin tissues of each group in Example 2-1 using RNAISO™ Plus (Takara). The mRNA was quantified using the NANODROP™ 1000 spectrophotometer (Thermo Fisher Scientific Inc.). […]

HAS2 = HAS2 mRNA expression in skin tissue (RT-PCR) of UVB-irradiated hairless mice; details: oral administration, 12 weeks, compared to the UVB-treated group
Procedure: as §1, with “samples. The hairless mice of the remaining groups except the CON group were irradiated with UVB, and the UVB irradiation was carried out using UV crosslinker CL-1000M (UVP) toward the back 3 times per week.” for “samples.”
as §3

HAS3 = HAS3 mRNA expression in skin tissue (RT-PCR) of UVB-irradiated hairless mice; details: oral administration, 12 weeks, compared to the UVB-treated group
Procedure: as §1, with “samples. The hairless mice of the remaining groups except the CON group were irradiated with UVB, and the UVB irradiation was carried out using UV crosslinker CL-1000M (UVP) toward the back 3 times per week.” for “samples.”
as §3

[2] = tested on: UVB-irradiated hairless mice; assay: Skin moisture content (Corneometer) on the dorsal skin of UVB-irradiated hairless mice; details: T10 group: 10 mg/kg/week oral, 12 weeks
Procedure: as §1, with “weeks.” for “weeks. In this case, the hairless mice belonging to the CON group and the UVB groups were orally administered with saline instead of the samples.”
as §2

COc1ccc(-c2cc(=O)c3c(O)cc(O[C@@H]4O[C@H](CO)[C@@H](O)[C@H](O)[C@H]4O)cc3o2)cc1 [tilianin]
content of hyaluronic acid, increase compared to the UVB-treated group (hyaluronic acid): 42.26% | TEWL (transepidermal water loss) [1]: decreased to a significant level | mRNA expression level of HAS1 (HAS1): significantly increased | mRNA expression level of HAS2 (HAS2): significantly increased | mRNA expression level of HAS3 (HAS3): significantly increased | moisture content in the skin [2]: restored to normal levels
